Assay results from patent publication US20200246441A1, “COMPOSITIONS AND METHODS FOR AUTOIMMUNE DISEASE TREATMENT” (AMRITA VISHWA VIDYAPEETHAM, priority 2016, published 2020).
Entries after “also recorded” stand apart in the source; their conditions may differ. Non-standard residues stand in square brackets, D forms with d. No end group written: not given here. βF = beta phenylalanine (beta-amino acid)

B1: Ova: control silica nanoparticles (500 nm or 200 nm) coated with ovalbumin (conjugate)
chain: GSIGAASMEFCFDVFKELKVHHANENIFYCPIAIMSALAMVYLGAKDSTRTQINKVVRFDKLPGFGDSIEAQCGTSVNVHSSLRDILNQITKPNDVYSFSLASRLYAEERYPILPEYLQCVKELYRGGLEPINFQTAADQARELINSWVESQTNGIIRNVLQPSSVDSQTAMVLVNAIVFKGLWEKAFKDEDTQAMPFRVTEQESKPVQMMYQIGLFRVASMASEKMKILELPFASGTMSMLVLLPDEVSGLEQLESIINFEKLTEWTSSNVMEERKIKVYLPRMKMEEKYNLTSVLMAMGITDVFSSSANLSGISSAESLKISQAVHAAHAEINEAGREVVGSAEAGVDAASVSEEFRADHPFLFCIKHIATNAVLFFGRCVSP

Legend:
NOD/Lt EAE mice [1] = assay: Histological analysis of CNS tissue of NOD/Lt EAE mice; assay type: in vivo, mouse; parameters: key to Axonal damage: 0 = no axonal pathology, 3 = severe axonal pathology; key to Demyelination score: 0 = no demyelination, 3 = severe demyelination; conditions: 200 nm silica peptide nanoparticles, mean ± SEM
Procedure: (§1) For histological analysis of CNS tissue, the brain and spinal cord were dissected from mice then fixed in 10% formalin (Sigma) for 24-48 h. Tissue was then processed and embedded in paraffin wax. Serial sections (5 μm) were cut from paraffin-embedded tissues and stained with hematoxylin and eosin, luxol fast blue and Bielschowsky silver impregnation to assess inflammation, demyelination and axonal damage, respectively. Sections were scored blind for semi-quantitative histological analysis of inflammation as follows: 0, no inflammation: 1, cellular infiltrate only in the perivascular areas and meninges; 2, mild cellular infiltrate in parenchyma: 3, moderate cellular infiltrate in parenchyma; 4, severe cellular infiltrate in parenchyma. Demyelination and axonal pathology were assessed by pale staining and scored blind as follows: 0, no demyelination/axonal pathology: 1, mild demyelination/axonal pathology; 2, moderate demyelination-axonal pathology; 3, severe demyelination/axonal pathology.

NOD/Lt EAE mice [2] = assay: EAE induction and clinical scoring, recombinant mouse MOG-induced EAE in NOD/Lt mice (relapsing remitting model); assay type: in vivo; conditions: for Disease incidence / Mortality / Cumulative score / Day disease onset / Maximum score / Score at termination: 200 nm silica peptide nanoparticles, NOD/Lt; for Disease incidence / Mortality: fraction of total; for Cumulative score / Day disease onset / Maximum score / Score at termination: mean ± SEM
[3] = system: MOG-specific T-cells (spleen cells from MOG T-cell receptor transgenic (2D2) mice); assay: Proliferation assay, 3H-thymidine incorporation; assay type: cell-based, mouse; conditions: for T-cell proliferation (proliferative response): free peptide or 500 nm silica NPs, up to 8 ug/ml
Procedure: Spleens were dissected from MOG T-cell receptor transgenic mice expressing the transgenic V3.2α/Vβ11 T-cell receptor specific for MOG35-55 peptide ([…]) in the context of 1-A^b. Single cell suspensions were prepared in complete RPMI medium containing 10% heat inactivated FBS, 2 mM L-glutamine, 100 U/ml penicillin, 100 μg/ml streptomycin, 50 μM 2-mercaptoethanol and 1 mM sodium pyruvate (Sigma). Following red blood cell lysis, splenocytes were seeded in triplicate in 96-well, flat bottom microtiter plates (Nunc) at a concentration of 2.5×10^5 cells per well. Splenocytes were cultured in medium alone or in the presence of increasing doses of MOG35-55 or nanoparticles. Cells were incubated at 37° C. for 72 hr with the addition of 1 μCi/well [3H]-thymidine (Perkin Elmer) for the last 18 hr of culture. Cells were harvested onto filter mats (Perkin Elmer) and incorporated radioactive nucleic acids counted using a Top Count NXT Scintillation Counter (Packard Biosciences).

C57Bl/6 EAE mice [4] = assay: Histological analysis of CNS tissue of C57Bl/6 EAE mice; assay type: in vivo, mouse; parameters: key to Axonal damage: 0 = no axonal pathology, 3 = severe axonal pathology; key to Demyelination score: 0 = no demyelination, 3 = severe demyelination; conditions: for Axonal damage / Demyelination score / Inflammation score: mean ± SEM; for CNS inflammation, demyelination and axonal damage: 500 nm NPs, versus bare NPs or scrambled MOG37-52 NPs
Procedure: as §1

C57Bl/6 EAE mice [5] = assay: EAE induction and clinical scoring, MOG35-55-induced EAE in C57Bl/6 mice (chronic progressive model); assay type: in vivo, mouse; conditions: for Disease incidence / Mortality: fraction of total; for Cumulative score / Day disease onset / Maximum score / Score at termination: mean ± SEM; for daily mean clinical score compared to controls: treatment prior to induction of EAE
EAE = conditions: administered as free peptide; cited from earlier work
[6] = 200 nm silica peptide nanoparticles
[7] = 500 nm silica peptide nanoparticles
[8] = 500 nm silica peptide nanoparticles, i.v. day -7 and -1

Molecule | Axonal damage (NOD/Lt EAE mice [1]) | Demyelination score (NOD/Lt EAE mice [1]) | Inflammation score (NOD/Lt EAE mice [1]) | Disease incidence (NOD/Lt EAE mice [2]) | Mortality (NOD/Lt EAE mice [2]) | Cumulative score (NOD/Lt EAE mice [2]) | Day disease onset (NOD/Lt EAE mice [2]) | Maximum score (NOD/Lt EAE mice [2]) | Score at termination (NOD/Lt EAE mice [2]) | T-cell proliferation (proliferative response) [3] | Axonal damage (C57Bl/6 EAE mice [4]; [6]) | Axonal damage (C57Bl/6 EAE mice [4]; [7]) | Demyelination score (C57Bl/6 EAE mice [4]; [7]) | Inflammation score (C57Bl/6 EAE mice [4]; [7]) | Disease incidence (C57Bl/6 EAE mice [5]; [8]) | Mortality (C57Bl/6 EAE mice [5]; [7]) | Cumulative score (C57Bl/6 EAE mice [5]; [7]) | Day disease onset (C57Bl/6 EAE mice [5]; [7]) | Maximum score (C57Bl/6 EAE mice [5]; [7]) | Score at termination (C57Bl/6 EAE mice [5]; [7]) | further results
ScrMOG37-52: control silica nanoparticles (500 nm or 200 nm) coated with scrambled MOG37-52 peptide RSVLVPSRWRHFYGVY [reference compound] | 2.583 ± 0.2007 | 2.583 ± 0.2007 | 3.583 ± 0.2713 | 6/6 | 0/6 | 58.5 ± 2.772 | 13.00 ± 0.4472 | 3.583 ± 0.3005 | 3.333 ± 0.3333 | not capable of stimulating T-cell proliferation | 2.188 ± 0.2302 | 2.367 ± 0.2472 | 2.333 ± 0.2108 | 2.917 ± 0.2007 | 6/6 | 0/6 | 52.5 ± 2.053 | 12.67 ± 0.4216 | 3.00 ± 0.0000 | 1.833 ± 0.2108 | Demyelination score (C57Bl/6 EAE mice [4]; [6]): 2.063 ± 0.2745; Inflammation score (C57Bl/6 EAE mice [4]; [6]): 2.688 ± 0.3889; Disease incidence (C57Bl/6 EAE mice [5]; [6]): 8/8; Mortality (C57Bl/6 EAE mice [5]; [6]): 0/8; Cumulative score (C57Bl/6 EAE mice [5]; [6]): 52.50 ± 4.621; Day disease onset (C57Bl/6 EAE mice [5]; [6]): 13.38 ± 0.9051; Maximum score (C57Bl/6 EAE mice [5]; [6]): 3.313 ± 0.2825; Score at termination (C57Bl/6 EAE mice [5]; [6]): 2.313 ± 0.4525
MOG44BF: 500 nm silica nanoparticles coated with MOG44βF peptide VGWYRSPβFSRVVHLYR (VGWYRSP[βF]SRVVHLYR; also: coated on 500 nm silica nanoparticles) |  |  |  |  |  |  |  |  |  |  |  | 0.5833 ± 0.2007 ∧∧∧∧ | 0.375 ± 0.08539^### *** ∧∧∧∧ | 0.7917 ± 0.2694^### *** ∧∧∧∧ | 2/6 | 0/6 | 5.417 ± 3.967 ^**** ∧∧∧ | 29.17 ± 3.710^++ ^### *** ∧∧∧ | 0.4167 ± 0.3270^++ ^*** ∧∧∧ | 0.1667 ± 0.1054 # ^∧ | T-cell proliferation (proliferative response) ([3]; listed as MOG440F): not capable of stimulating T-cell proliferation; T-cell proliferation (proliferative response) ([3]; listed as MOG441F): did not induce a robust proliferative response; CNS inflammation, demyelination and axonal damage (C57Bl/6 EAE mice [4]): reduction in CNS inflammation, demyelination and axonal damage; also recorded: significantly reduced inflammation, demyelination and axonal damage; therapeutic effect compared to MOG37-52 coated NPs (onset, disease severity) (C57Bl/6 EAE mice [5]; 500 nm NPs): more significant therapeutic effect; daily mean clinical score compared to controls (C57Bl/6 EAE mice [5]; 500 nm NPs): significant reduction
MOG37-52: silica nanoparticles coated with mouse MOG37-52 peptide VGWYRSPFSRVVHLYR; 500 nm in Table 1, 200 nm in Tables 2 and 3 | 2.833 ± 0.1667 | 2.917 ± 0.0833 | 4.167 ± 0.1667 | 6/6 | 0/6 | 30.50 ± 3.266^∧∧ ^## | 17.33 ± 2.23 | 2.667 ± 0.1667^∧ | 2.25 ± 0.2814^∧ | comparable proliferative response; also recorded: comparable to the MOG37-52 peptide | 1.35 ± 0.1833 # ^∧∧∧ | 1.208 ± 0.2275 ^∧∧ | 0.833 ± 0.8333 ^** ∧∧∧∧ | 1.542 ± 0.2275 ^* ∧∧ | 6/6 | 0/6 | 26.00 ± 8.039 ^** | 17.17 ± 2.151 | 2.00 ± 0.3873 | 1.083 ± 0.3270 | disease severity (NOD/Lt EAE mice [2]; 200 nm NPs, NOD/Lt mice): significantly reduced disease severity; proliferative response ([3]; 200 nm NPs): did not induce a proliferative response that was above background levels; axonal damage compared to bear, scrambled MOG37-52 or ovalbumin nanoparticles (C57Bl/6 EAE mice [4]; 200 nm silica nanoparticles): significantly reduced axonal damage; inflammation compared to bear nanoparticles (C57Bl/6 EAE mice [4]; 200 nm silica nanoparticles): significantly reduced inflammation; Demyelination score (C57Bl/6 EAE mice [4]; [6]): 1.85 ± 0.2242; Inflammation score (C57Bl/6 EAE mice [4]; [6]): 2.275 ± 0.3772^∧; CNS inflammation, demyelination and axonal damage (C57Bl/6 EAE mice [4]): reduction in CNS inflammation, demyelination and axonal damage; also recorded: significantly reduced inflammation, demyelination and axonal damage; effect on clinical disease (C57Bl/6 EAE mice [5]; 200 nm NPs, C57BL/6 mice): significant effect on clinical disease; Disease incidence (C57Bl/6 EAE mice [5]; [6]): 10/10; Mortality (C57Bl/6 EAE mice [5]; [6]): 0/10; Cumulative score (C57Bl/6 EAE mice [5]; [6]): 33.05 ± 2.086 ∧∧∧∧; Day disease onset (C57Bl/6 EAE mice [5]; [6]): 15.70 ± 1.334; Maximum score (C57Bl/6 EAE mice [5]; [6]): 2.50 ± 0.1667^∧; Score at termination (C57Bl/6 EAE mice [5]; [6]): 1.45 ± 0.2930^∧∧∧; daily mean clinical score compared to controls (C57Bl/6 EAE mice [5]; 500 nm NPs): significant reduction
VGWYRSPβFSRVVHLYR [MOG 44βF] |  |  |  |  |  |  |  |  |  |  |  |  |  |  |  |  |  |  |  |  | dosage at which free peptide suppressed EAE (EAE): 800 µg
MEVGWYRSPFSRVVHLYRNGK [MOG35-55, encephalitogenic mouse MOG peptide, free peptide, reference compound] |  |  |  |  |  |  |  |  |  | robust proliferation response |  |  |  |  |  |  |  |  |  |  | 
B1 | 2.60 ± 0.1871 | 2.60 ± 0.1871 | 4.00 ± 0.00 | 6/6 | 1/6 | 46.75 ± 4.656 | 14.17 ± 1.327 | 3.583 ± 0.3005 | 3.167 ± 0.4014 | not capable of stimulating T-cell proliferation | 2.50 ± 0.2236 | 2.333 ± 0.1667 | 2.333 ± 0.1667 | 2.833 ± 0.1667 | 4/4 | 1/4 | 69.38 ± 11.77 | 10.75 ± 0.8539 | 3.625 ± 0.4732 | 2.75 ± 0.7773 | Demyelination score (C57Bl/6 EAE mice [4]; [6]): 2.40 ± 0.3674; Inflammation score (C57Bl/6 EAE mice [4]; [6]): 2.80 ± 0.4899; Disease incidence (C57Bl/6 EAE mice [5]; [6]): 5/5; Mortality (C57Bl/6 EAE mice [5]; [6]): 0/5; Cumulative score (C57Bl/6 EAE mice [5]; [6]): 62.00 ± 4.987; Day disease onset (C57Bl/6 EAE mice [5]; [6]): 10.60 ± 0.9274; Maximum score (C57Bl/6 EAE mice [5]; [6]): 3.3 ± 0.2000; Score at termination (C57Bl/6 EAE mice [5]; [6]): 2.60 ± 0.3317
